# From patent US3980646A, “3-Methylpyrazole-5-carboxylates and medicaments containing these compounds” (Wulfing; Johann A., priority 1974, dated 1976)
# “And” between values parts separate entries of the source, which are not always exact repeats. Identical values can stand only once. “Also recorded” adds a separate entry of the source.
# What was measured:
# free fatty acids (FFS) = test: influence on the free fatty acids (FFS) in starved (hyperlipacidaemic) animals, hunger lipolysis; assay type: in vivo, rats (Wistar)
# Experimental: Investigations on a total of 260 Wistarrats were conducted with 7-[3-(N-methyl-N-2-hydroxyethyl)-amino-2-hydroxypropyl]-1,3-dimethylxanthine-3-methylpyrazole-5-carboxylate.
# Examination of the influence of 7-[3-(N-methyl-N-2-hydroxy-
# ethyl)-amino-2-hydroxypropyl]-1,3-dimethylxanthine-3-methyl-
# pyrazole-5-carboxylate on the serum fatty acids (FFS) of
# Male Rats, starve for 17 hours
# Dose: 100 mg/kg body weight, oral by esophagus probe,
# Blood removal: 1 hour after application
# pyrazole-5-carboxylate on the free fatty acids (FFS) in
# starved animals 1 hour after application
# Comparative examinations of the influence of 7-[3-(N-methyl-
# carboxylic acid on the free fatty acids (FFS) in starved
# animals 1 hour after application
# pyrazole-5-carboxylic acid on the free fatty acids (FFS)
# in starved animals 6 hours after application
# Triglycerides = test: triglycerides in hyperlipacidaemic rats treated with octylphenol polyethylene glycolether; assay type: in vivo, Male rats (Wistar)
# Experimental: Male rats, starve for 22 hours, ether narcosis, heart puncture
# Dose: 1000 mg/kg of octylphenyl polyethylene glycolether i.v.
# 6 hours before blood removal
# Dose: 100 mg/kg of 7-[3-(N-methyl-N-2-hydroxyethyl)-amino-2-
# hydroxypropyl]-1,3-dimethylxanthine-3-methylpyrazole-5-
# carboxylate by esophagus probe, 6 hours, 4 hours and
# 2 hours before blood removal
# cholesterol = test: assaying for cholesterol in starved rats; assay type: in vivo, Male Rats (Wistar)
# Experimental: Assaying for cholesterol
# Male Rats, starve for 18 hours, ether narcosis, heart puncture
# 100 mg/kg of 7-[3-(N-methyl-N-
# [1] = general pharmacological effects (lipolysis inhibition, lipid lowering, tachyphylaxis, toxicity); assay type: in vivo
# mice = test: LD50 in mice; assay type: in vivo
# serum triglycerides = test: influence on the serum triglycerides of repeated application; assay type: in vivo, rats male (Wistar); details: for serum triglycerides: individual animals, starve for 5 hours, 100 mg/kg; for serum triglycerides / serum triglycerides, mean (x10): 100 mg/kg x/day p.o.; for serum triglycerides, mean (x10): control 133.6
# Experimental: Influence on the serum triglycerides of repeated application of
# 100 mg/kg x/day p.o. rats male, starve for 5 hours, ether narcosis, heart
# last application 1 hour before killing (cf. FIG. 3)
# serum triglycerides (TG) = test: influence on the serum triglycerides (TG) in normal animals; assay type: in vivo, Rats (Wistar); details: for TG: starve for 5 hours; for TG, mean (x): 1 hour
# Experimental: Rats, starve for 5 hours
# 40 mg/kg body weight of active principle according to
# the invention, oral by esophagus probe 1 hour before
# 12 mg/kg body weight of 3-methylpyrazole-5-carboxylic
# acid, equim. dosage, 1 hour before removal of blood
# Dose: 10 mg/kg body weight of active principle according to the
# invention, oral by esophagus probe 1 hour before blood removal
# Dose: 3 mg/kg body weight of 3-methylpyrazole-5-carboxylic acid,
# equim. dosage, oral by esophagus probe 1 hour before
compound,measurement,setting,value
"CN(CCO)CC(O)Cn1cnc2c1c(=O)n(C)c(=O)n2C.Cc1cc(C(=O)O)[nH]n1 (stereo not drawn) [7-[3-(N-methyl-N-2-hydroxyethyl)-amino-2-hydroxypropyl]-1,3-dimethylxanthine-3-methylpyrazole-5-carboxylate]",FFS,"free fatty acids (FFS); Table 4 dose-effect, starved animals, 1 hour, 100 mg/kg, n 15, control 0.91, *p<0.001",0.46 μval/ml
same,FFS,"free fatty acids (FFS); Table 5, individual animals, starved, 1 hour after application, 50 mg/kg",0.39 μval/ml and 0.44 μval/ml and 0.46 μval/ml and 0.40 μval/ml and 0.35 μval/ml and 0.45 μval/ml and 0.37 μval/ml and 0.32 μval/ml and 0.41 μval/ml
same,"FFS, mean","free fatty acids (FFS); Table 5, mean, n=10, starved, 1 hour after application, 50 mg/kg, control 1.08, p<0.001",0.40 μval/ml
same,FFS,"free fatty acids (FFS); Table 6, individual animals, starved, 6 hours after application, 50 mg/kg BW p.o., 50 mg/kg",0.39 μval/ml and 0.35 μval/ml and 0.43 μval/ml and 0.58 μval/ml and 0.54 μval/ml and 0.63 μval/ml and 0.77 μval/ml and 0.52 μval/ml and 0.51 μval/ml and 0.96 μval/ml and 0.59 μval/ml and 0.78 μval/ml and 0.53 μval/ml and 0.44 μval/ml and 0.64 μval/ml and 0.85 μval/ml and 0.32 μval/ml
same,"FFS, mean (x)","free fatty acids (FFS); Table 6, mean, n=21, starved, 6 hours after application, 50 mg/kg BW p.o., control 0.86, p<0.001",0.57 μval/ml
same,lipolysis-inhibiting effect compared with free 3-methylpyrazole-5-carboxylic acid,"free fatty acids (FFS); equimolar dosage, especially 6 hours after application",more pronounced than that of the free 3-methylpyrazole-5-carboxylic acid
same,triglyceride level,"Triglycerides; hyperlipacidaemic rats, result in words",significant reduction in the triglyceride level
same,TG,"Triglycerides; individual animals, octylphenol polyethylene glycolether 1000 mg/kg i.v. 6 hours before, 100 mg/kg per os 6, 4 and 2 hours before killing",644.4 mg % and 687.4 mg % and 701.6 mg % and 707.4 mg % and 610.0 mg % and 703.1 mg % and 695.9 mg % and 711.7 mg %
same,"TG, mean (x)","Triglycerides; mean, octylphenol polyethylene glycolether 1000 mg/kg i.v., 100 mg/kg per os 6, 4 and 2 hours before killing, control x = 777.2, p<0.001",687.0 mg %
same,cholesterol level of starved rats,"cholesterol; 100 mg/kg perorally, result in words",significantly reduces the cholesterol level
same,Cholesterol,"cholesterol; individual animals, starve for 18 hours, 100 mg/kg per os 1 hour before killing, 100 mg/kg",78.45 mg % and 50.86 mg % and 57.76 mg % and 47.71 mg % and 62.07 mg % and 48.28 mg % and 65.52 mg % and 56.03 mg % and 38.79 mg %
same,"Cholesterol, mean (x10)","cholesterol; mean of 10, starve for 18 hours, 100 mg/kg per os 1 hour before killing, control 75.69, p<0.001",57.07 mg %
same,influence on free fatty acids (FFS),"[1]; doses down to 2 mg/kg, normal and hyperlipacidaemic rats (starved animals, alcohol animals)",significantly influences the free fatty acids (FFS)
same,"effect (lipolysis inhibition, reducing triglyceride and cholesterol level, low toxicity)",[1]; result in words,particularly marked effect
same,LD50,mice; i.v.,540 mg/kg
same,LD50,mice; per oral,more than 1000 mg/kg
same,effect on the serum triglycerides on repeated application,"serum triglycerides; 100 mg/kg over 4 days, result in words","uniform and, in some cases, even increased effect; also recorded: still significantly reduced"
same,serum triglycerides,serum triglycerides; 1st day,85.9 mg% and 57.3 mg% and 118.6 mg% and 104.5 mg% and 65.9 mg% and 88.8 mg%
same,"serum triglycerides, mean (x10)",serum triglycerides; 1st day,82.6 mg%
same,serum triglycerides,serum triglycerides; 2nd day,38.7 mg% and 61.6 mg% and 54.4 mg% and 63.0 mg% and 95.9 mg% and 87.3 mg% and 127.4 mg% and 74.4 mg% and 57.2 mg% and 88.7 mg%
same,"serum triglycerides, mean (x10)",serum triglycerides; 2nd day,74.8 mg%
same,serum triglycerides,serum triglycerides; 3rd day,60.1 mg% and 63.0 mg% and 90.2 mg% and 108.8 mg% and 50.1 mg% and 97.4 mg% and 80.2 mg% and 105.9 mg% and 58.7 mg%
same,"serum triglycerides, mean (x10)",serum triglycerides; 3rd day,77.4 mg%
same,serum triglycerides,serum triglycerides; 4th day,30.1 mg% and 73.0 mg% and 67.0 mg% and 64.4 mg% and 60.1 mg% and 44.4 mg% and 58.7 mg% and 101.7 mg% and 67.3 mg%
same,"serum triglycerides, mean (x10)",serum triglycerides; 4th day,61.1 mg%
same,TG,"serum triglycerides (TG); Table 7, individual animals, 40 mg/kg oral 1 hour before removal of blood, 40 mg/kg",71.6 mg % and 22.9 mg % and 15.8 mg % and 18.6 mg % and 41.5 mg % and 40.1 mg % and 58.7 mg % and 32.9 mg % and 45.8 mg %
same,"TG, mean (x)","serum triglycerides (TG); Table 7, mean, 40 mg/kg oral, control x = 66.4, p<0.0027>Ko",36.3 mg %
same,TG,"serum triglycerides (TG); Table 8, individual animals, 10 mg/kg oral 1 hour before blood removal, 10 mg/kg",48.7 mg % and 54.4 mg % and 83.1 mg % and 55.8 mg % and 74.4 mg % and 81.6 mg % and 51.5 mg % and 40.1 mg %
same,"TG, mean (x)","serum triglycerides (TG); Table 8, mean, 10 mg/kg oral, control x = 86.3, p<0.05>Ko",59.8 mg %
same,serum triglyceride level of normal animals,"serum triglycerides (TG); doses down to 10 mg/kg, result in words",significantly reduces the serum triglyceride level
